# Laboratory results taken from article doi:10.1101/2024.02.16.580709v1, “Developing Hybrid Systems to Address O2 Uncoupling in Multi-Component Rieske Oxygenases” (biorxiv, 2024).
# Assays:
# Type in all cases: biochemical
# PDR = molecular target: T1, PDR (Burkholderia cepacia, UniProt P33164); assay: ABTS-HRP assay of H2O2 formed; conditions: 24 h; GDH-based NADH regeneration; O2 uncoupling, no ferredoxin
# T1 construct: gene ophA1; codon-optimised gene in pET-28a(+), N-terminal 6xHis tag, E. coli JM109(DE3), Ni-sepharose purified; flavin and [2Fe-2S] domains
# T1 sequence (P33164 2-322): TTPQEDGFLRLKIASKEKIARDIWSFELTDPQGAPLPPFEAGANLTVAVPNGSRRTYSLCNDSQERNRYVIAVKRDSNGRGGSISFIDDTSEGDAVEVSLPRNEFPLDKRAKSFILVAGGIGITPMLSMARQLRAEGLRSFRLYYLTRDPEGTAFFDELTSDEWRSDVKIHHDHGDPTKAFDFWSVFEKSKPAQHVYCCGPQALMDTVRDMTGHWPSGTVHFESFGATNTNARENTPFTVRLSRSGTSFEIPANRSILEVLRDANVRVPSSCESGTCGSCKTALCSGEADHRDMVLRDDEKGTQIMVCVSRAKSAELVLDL
# VanB = molecular target: T2, VanB (Pseudomonas aeruginosa, UniProt Q9HUQ8); assay: ABTS-HRP assay of H2O2 formed; conditions: 24 h; GDH-based NADH regeneration; O2 uncoupling, no ferredoxin
# T2 construct: codon-optimised gene in pET-28a(+), N-terminal 6xHis tag, E. coli JM109(DE3), Ni-sepharose purified; flavin and [2Fe-2S] domains
# T2 sequence (Q9HUQ8 1-317): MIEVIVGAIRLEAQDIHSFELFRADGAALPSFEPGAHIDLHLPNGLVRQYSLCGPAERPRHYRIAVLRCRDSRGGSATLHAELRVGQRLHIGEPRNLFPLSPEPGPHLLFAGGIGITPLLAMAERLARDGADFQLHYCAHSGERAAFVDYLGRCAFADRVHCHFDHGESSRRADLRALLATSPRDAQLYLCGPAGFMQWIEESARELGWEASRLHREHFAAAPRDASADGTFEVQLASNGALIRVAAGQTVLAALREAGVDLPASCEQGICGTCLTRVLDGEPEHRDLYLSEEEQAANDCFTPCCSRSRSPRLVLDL
# [1] = molecular target: T3, CDO (CDO-WT; CDO-Oxy with CDO-Fd and CDO-Red) (Pseudomonas fluorescens, UniProt Q51743); assay: GC-FID product quantification; conditions: 30 °C, 24 h, pH 7.2; NAD+ with GDH/glucose NADH regeneration, catalase, 1 mM DTT; O2
# T3 construct: gene cumA1; codon-optimised genes in pET-28a(+), N-terminal 6xHis tag, E. coli JM109(DE3), Ni-sepharose purified; components mixed in vitro; with Cumene dioxygenase terminal oxygenase small (beta) subunit; Cumene dioxygenase ferredoxin; Cumene dioxygenase ferredoxin reductase
# T3 sequence (Q51743 1-459): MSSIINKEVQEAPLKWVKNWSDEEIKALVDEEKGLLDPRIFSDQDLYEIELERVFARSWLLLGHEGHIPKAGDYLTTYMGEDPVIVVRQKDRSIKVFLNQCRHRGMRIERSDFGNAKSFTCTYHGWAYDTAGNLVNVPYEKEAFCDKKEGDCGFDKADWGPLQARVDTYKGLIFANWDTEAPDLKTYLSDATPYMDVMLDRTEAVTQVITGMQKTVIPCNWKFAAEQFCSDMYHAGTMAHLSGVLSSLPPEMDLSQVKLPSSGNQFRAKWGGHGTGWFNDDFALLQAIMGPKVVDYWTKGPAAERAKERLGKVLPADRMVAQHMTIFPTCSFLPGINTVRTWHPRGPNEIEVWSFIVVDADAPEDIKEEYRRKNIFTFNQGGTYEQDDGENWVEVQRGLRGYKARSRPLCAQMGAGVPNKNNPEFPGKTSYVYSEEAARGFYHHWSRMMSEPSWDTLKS
# T3 sequence (Q51744 1-186 partner): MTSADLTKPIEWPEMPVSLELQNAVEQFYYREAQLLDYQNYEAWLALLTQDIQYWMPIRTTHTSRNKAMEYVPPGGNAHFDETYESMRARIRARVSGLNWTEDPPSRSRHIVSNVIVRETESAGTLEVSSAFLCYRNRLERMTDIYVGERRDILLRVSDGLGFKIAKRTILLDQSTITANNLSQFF
Structure (SMILES),ABTS-HRP assay of H2O2 formed (PDR),ABTS-HRP assay of H2O2 formed (VanB),GC-FID product quantification [1]
NC(=O)C1=CN([C@@H]2O[C@H](COP(=O)(O)OP(=O)(O)OC[C@H]3O[C@@H](n4cnc5c(N)ncnc54)[C@H](O)[C@@H]3O)[C@@H](O)[C@H]2O)C=CC1 [NADH],the H2O2 formation by PDR and VanB was evaluated analogously,the H2O2 formation by PDR and VanB was evaluated analogously,
"C1=Cc2ccccc2C1 [compound 1, indene]",,,product formation in in vitro reactions with complete CDO-WT
